Tests used:
[1] = system: SUP-B15 (B-Lymphoblastic Leukemia); assay: Bliss excess, mean over the matrix (fraction); higher = more synergy;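 also: after 72 h of two-drug dosing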
Summary of the method: (§1)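 Cell lines grown in DMEM/F12 or RPMI with 10% FBS were plated in 1536-well plates and held 24 hours at 37°C, 5% CO2 before 72 hours of exposure to two-drug dose matrices, with DMSO typically at 0.2%. CellTiter-Glo 2.0 luminescence gave viability, which was converted to inhibition. Vehicle wells were set to 0 and blank wells to 1. Combination Emax is the second-highest inhibition in the matrix, and Bliss excess is the observed combination effect minus the expected EA + EB − EA·EB, where EA and EB are the single-agent effects.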

[2] = system: ST486 (Burkitt's Lymphoma); assay: combination Emax (second highest fraction inhibited in the dose matrix, 72 h); higher = more inhibition; extreme values may be limits of the assay
Summary of the method: as §1

SJSA-1 (Osteosarcoma) = assay: as above
Summary of the method: as §1

[3] = system: IM-95 (Gastric Carcinoma); assay: as above
Summary of the method: as §1

[4] = system: RPMI-8226 (Plasma Cell Myeloma); assay: as above
Summary of the method: as §1

[5] = system: JHH-4 (Hepatocellular Carcinoma); assay: as above
Summary of the method: as §1

[6] = system: ESO51 (Esophageal Adenocarcinoma); assay: as above
Summary of the method: as §1

[7] = system: SK-GT-4 (Esophageal Adenocarcinoma); assay: as above
Summary of the method: as §1

[8] = system: MOLM-13 (Acute Myeloid Leukemia); assay: as above
Summary of the method: as §1

[9] = system: KP-3 (Pancreatic Carcinoma); assay: as above
Summary of the method: as §1

[10] = system: CHSA8926 (Chondrosarcoma); assay: as above
Summary of the method: as §1

M059J (Glioblastoma) = assay: as above
Summary of the method: as §1

[11] = system: KYSE-270 (Esophageal Squamous Cell Carcinoma); assay: as above
Summary of the method: as §1

[12] = system: HCC1187 (Breast Carcinoma); assay: as above
Summary of the method: as §1

[13] = system: NCI-H661 (Non-Small Cell Lung Carcinoma); assay: as above
Summary of the method: as §1

[14] = system: DMS-114 (Small Cell Lung Carcinoma); assay: as above
Summary of the method: as §1

NCI-H2731 (Mesothelioma) = assay: as above
Summary of the method: as §1

[15] = system: HCC1419 (Breast Carcinoma); assay: as above
Summary of the method: as §1

[16] = system: SK-GT-2 (Gastric Carcinoma); assay: as above
Summary of the method: as §1

[17] = system: H9 (T-Cell Non-Hodgkin's Lymphoma); assay: as above
Summary of the method: as §1

Structure (SMILES)	Bliss excess [1]	combination Emax [2]	combination Emax (SJSA-1 (Osteosarcoma))	combination Emax [3]	combination Emax [4]	combination Emax [5]	combination Emax [6]	combination Emax [7]	combination Emax [8]	combination Emax [9]	combination Emax [10]	combination Emax (M059J (Glioblastoma))	combination Emax [11]	combination Emax [12]	combination Emax [13]	combination Emax [14]	combination Emax (NCI-H2731 (Mesothelioma))	combination Emax [15]	combination Emax [16]	combination Emax [17]
C=CCn1c(=O)c2cnc(Nc3ccc(N4CCN(C)CC4)cc3)nc2n1-c1cccc(C(C)(C)O)n1 [AZD1775] + O=C(c1cc(Cc2n[nH]c(=O)c3ccccc23)ccc1F)N1CCN(C(=O)C2CC2)CC1 [Olaparib] (first compound max 1 µM, partner max 10 µM)	-0.0148	0.979	0.253	0.447	0.502	0.307	0.455	0.363	0.991	0.28	0.455	0.618	0.7	0.423	0.512	0.363	0.349	0.118	0.82	0.868
COc1cccc(OCCCN)c1-c1cc(Nc2cnc(C#N)cn2)n[nH]1 [Prexasertib] + C=CCn1c(=O)c2cnc(Nc3ccc(N4CCN(C)CC4)cc3)nc2n1-c1cccc(C(C)(C)O)n1 [AZD1775] (first compound max 1 µM, partner max 1 µM)	0.0224	1	0.686	0.691	1	0.701	0.757	0.758	1	0.472	0.531	0.822	1	0.819	0.788	0.385	0.544	0.269	0.899	1
Cc1cc2ncnn2cc1Nc1ncc2c(n1)n(C1CCOCC1)c(=O)n2C [AZD7648] + C=CCn1c(=O)c2cnc(Nc3ccc(N4CCN(C)CC4)cc3)nc2n1-c1cccc(C(C)(C)O)n1 [AZD1775] (first compound max 10 µM, partner max 1 µM)	0.0174	0.98	0.486	0.501	0.348	0.483	0.576	0.474	1	0.282	0.592	0.522	0.594	0.304	0.649	0.385	0.416	0.341	0.74	0.969
CN(C)CCCOc1ccc(-c2ccc3ncc4c(c3c2)n(C2CCOCC2)c(=O)n4C)cn1 [AZD0156] + C[C@@H]1COCCN1C2=NC(=NC(=C2)C3(CC3)[S@](=N)(=O)C)C4=C5C=CNC5=NC=C4 [AZD6738] (first compound max 1 µM, 7x7, partner max 10 µM)	0.0247	0.948	0.325	0.339	0.994	0.133	0.773	0.661	0.997	0.398	0.336	0.637	0.914	0.472	0.486	0.515	0.244	0.159	0.311	0.972
C[C@@H](c1ccc2nccn2c1)n1nnc2ncc(-c3cnn(C)c3)nc21 [Savolitinib] + Cc1c2c(nn1C)CSCc1cc(n(C)n1)CSc1cc(c3ccccc3c1)OCCCc1c(C(=O)O)n(C)c3c-2c(Cl)ccc13 [AZD5991] (first compound max 1 µM, 7x7, partner max 1 µM)	-0.0555	0.483	0.265	0.732	0.983	0.182	0.977	0.14	1	0.235	0.318	0.204	0.652	1	0.491	0.551	0.119	0.255	0.163	0.342
CN(CCO)CC[C@H](CSc1ccccc1)Nc1ccc(S(=O)(=O)NC(=O)c2ccc(N3CCC([C@@H](O)c4ccccc4-c4ccc(Cl)cc4)CC3)cc2)cc1S(=O)(=O)C(F)(F)F [AZD4320] + C1CN(CCC1(C(=O)N[C@@H](CCO)C2=CC=C(C=C2)Cl)N)C3=NC=NC4=C3C=CN4 [Capivasertib] (first compound max 1 µM, 7x7, partner max 3 µM)	-0.0203	0.881	0.392	0.658	0.925	0.0846	0.0266	0.443	1	0.0865	0.579	0.486	0.23	0.146	0.0615	0.229	0.197	0.879	0.403	0.986
CN(C)CCCOc1ccc(-c2ccc3ncc4c(c3c2)n(C2CCOCC2)c(=O)n4C)cn1 [AZD0156] + C=CCn1c(=O)c2cnc(Nc3ccc(N4CCN(C)CC4)cc3)nc2n1-c1cccc(C(C)(C)O)n1 [AZD1775] (first compound max 1 µM, partner max 1 µM)	0.0282	0.987	0.17	0.454	0.656	0.428	0.69	0.4	0.985	0.211	0.49	0.628	0.676	0.299	0.523	0.257	0.285	0.104	0.714	0.891
COc1cc2c(cc1OCCCCCOc1cc3c(cc1OC)C(=O)N1C=C(C)C[C@H]1C=N3)N=C[C@@H]1CC(C)=CN1C2=O [SG3199] + O=C(c1cc(Cc2n[nH]c(=O)c3ccccc23)ccc1F)N1CCN(C(=O)C2CC2)CC1 [Olaparib] (first compound max 0.001 µM, 7x7, partner max 10 µM)	-0.0051	0.103	0.159	0.0954	0.165	0.149	0.138	0.104	0.554	0.027	0.355	0.214	0.228	0.204	0.133	0.0991	0.0512	0.0746	0.12	0.0468
Cn1cnc2c(F)c(Nc3ccc(Br)cc3Cl)c(C(=O)NOCCO)cc21 [Selumetinib] + CCN(CCO)CCCOc1ccc2c(Nc3cc(CC(=O)Nc4cccc(F)c4)[nH]n3)ncnc2c1 [AZD2811] (first compound max 10 µM, 7x7, partner max 1 µM)	0.0553	0.852	0.384	0.519	0.446	0.63	0.454	0.533	0.999	0.202	0.139	0.237	0.295	0.94	0.0527	0.281	0.201	0.113	0.173	1
CN(CCO)CC[C@H](CSc1ccccc1)Nc1ccc(S(=O)(=O)NC(=O)c2ccc(N3CCC([C@@H](O)c4ccccc4-c4ccc(Cl)cc4)CC3)cc2)cc1S(=O)(=O)C(F)(F)F [AZD4320] + Cn1cnc2c(F)c(Nc3ccc(Br)cc3Cl)c(C(=O)NOCCO)cc21 [Selumetinib] (first compound max 1 µM, 7x7, partner max 3 µM)	0.0853	0.866	0.429	0.876	0.965	0.326	0.476	0.624	1	0.198	0.643	0.3	0.389	0.377	0.264	0.358	0.22	0.336	0.241	1
C=CCn1c(=O)c2cnc(Nc3ccc(N4CCN(C)CC4)cc3)nc2n1-c1cccc(C(C)(C)O)n1 [AZD1775] + C1CN(CCC1(C(=O)N[C@@H](CCO)C2=CC=C(C=C2)Cl)N)C3=NC=NC4=C3C=CN4 [Capivasertib] (first compound max 3 µM, partner max 3 µM)	0.0073	0.971	0.634	0.655	0.822	0.439	0.814	0.596	1	0.28	0.578	0.826	0.85	0.936	0.648	0.649	0.416	0.282	0.83	0.95
CCN(CCO)CCCOc1ccc2c(Nc3cc(CC(=O)Nc4cccc(F)c4)[nH]n3)ncnc2c1 [AZD2811] + C[C@@H]1COCCN1C2=NC(=NC(=C2)C3(CC3)[S@](=N)(=O)C)C4=C5C=CNC5=NC=C4 [AZD6738] (first compound max 1 µM, 7x7, partner max 10 µM)	-0.0468	0.913	0.289	0.312	0.967	0.0985	0.751	0.583	1	0.368	0.332	0.646	0.764	0.846	0.441	0.435	0.308	0.0919	0.289	0.977
Cc1cc2ncnn2cc1Nc1ncc2c(n1)n(C1CCOCC1)c(=O)n2C [AZD7648] + CN(C)CCCOc1ccc(-c2ccc3ncc4c(c3c2)n(C2CCOCC2)c(=O)n4C)cn1 [AZD0156] (first compound max 10 µM, 7x7, partner max 1 µM)	-0.0084	0.274	0.456	0.303	0.248	0.247	0.192	0.315	0.523	0.159	0.446	0.321	0.143	0.104	0.237	0.293	0.274	0.358	0.159	0.331

Source: the supplement of paper PMC11061612
